In patent US9701627B2, “LRRK2 GTP binding inhibitors for treatment of Parkinson's disease and neuroinflammatory disorders” (University of Maryland, Baltimore, priority 2014, dated 2017):

Columns and labels:
LRRK2 [1] = molecular target: T1, LRRK2 (Mus musculus, UniProt Q5S006, G2019S); test: brain LRRK2 phosphorylation (kinase activity) in G2019S-LRRK2-BAC transgenic mice; type: in vivo; conditions: 1 h after injection
T1 construct: tissue Jackson Laboratory 012467; host or cells: brain homogenate of G2019S-LRRK2-BAC transgenic mice
T1 sequence (Q5S006 whole entry G2019S): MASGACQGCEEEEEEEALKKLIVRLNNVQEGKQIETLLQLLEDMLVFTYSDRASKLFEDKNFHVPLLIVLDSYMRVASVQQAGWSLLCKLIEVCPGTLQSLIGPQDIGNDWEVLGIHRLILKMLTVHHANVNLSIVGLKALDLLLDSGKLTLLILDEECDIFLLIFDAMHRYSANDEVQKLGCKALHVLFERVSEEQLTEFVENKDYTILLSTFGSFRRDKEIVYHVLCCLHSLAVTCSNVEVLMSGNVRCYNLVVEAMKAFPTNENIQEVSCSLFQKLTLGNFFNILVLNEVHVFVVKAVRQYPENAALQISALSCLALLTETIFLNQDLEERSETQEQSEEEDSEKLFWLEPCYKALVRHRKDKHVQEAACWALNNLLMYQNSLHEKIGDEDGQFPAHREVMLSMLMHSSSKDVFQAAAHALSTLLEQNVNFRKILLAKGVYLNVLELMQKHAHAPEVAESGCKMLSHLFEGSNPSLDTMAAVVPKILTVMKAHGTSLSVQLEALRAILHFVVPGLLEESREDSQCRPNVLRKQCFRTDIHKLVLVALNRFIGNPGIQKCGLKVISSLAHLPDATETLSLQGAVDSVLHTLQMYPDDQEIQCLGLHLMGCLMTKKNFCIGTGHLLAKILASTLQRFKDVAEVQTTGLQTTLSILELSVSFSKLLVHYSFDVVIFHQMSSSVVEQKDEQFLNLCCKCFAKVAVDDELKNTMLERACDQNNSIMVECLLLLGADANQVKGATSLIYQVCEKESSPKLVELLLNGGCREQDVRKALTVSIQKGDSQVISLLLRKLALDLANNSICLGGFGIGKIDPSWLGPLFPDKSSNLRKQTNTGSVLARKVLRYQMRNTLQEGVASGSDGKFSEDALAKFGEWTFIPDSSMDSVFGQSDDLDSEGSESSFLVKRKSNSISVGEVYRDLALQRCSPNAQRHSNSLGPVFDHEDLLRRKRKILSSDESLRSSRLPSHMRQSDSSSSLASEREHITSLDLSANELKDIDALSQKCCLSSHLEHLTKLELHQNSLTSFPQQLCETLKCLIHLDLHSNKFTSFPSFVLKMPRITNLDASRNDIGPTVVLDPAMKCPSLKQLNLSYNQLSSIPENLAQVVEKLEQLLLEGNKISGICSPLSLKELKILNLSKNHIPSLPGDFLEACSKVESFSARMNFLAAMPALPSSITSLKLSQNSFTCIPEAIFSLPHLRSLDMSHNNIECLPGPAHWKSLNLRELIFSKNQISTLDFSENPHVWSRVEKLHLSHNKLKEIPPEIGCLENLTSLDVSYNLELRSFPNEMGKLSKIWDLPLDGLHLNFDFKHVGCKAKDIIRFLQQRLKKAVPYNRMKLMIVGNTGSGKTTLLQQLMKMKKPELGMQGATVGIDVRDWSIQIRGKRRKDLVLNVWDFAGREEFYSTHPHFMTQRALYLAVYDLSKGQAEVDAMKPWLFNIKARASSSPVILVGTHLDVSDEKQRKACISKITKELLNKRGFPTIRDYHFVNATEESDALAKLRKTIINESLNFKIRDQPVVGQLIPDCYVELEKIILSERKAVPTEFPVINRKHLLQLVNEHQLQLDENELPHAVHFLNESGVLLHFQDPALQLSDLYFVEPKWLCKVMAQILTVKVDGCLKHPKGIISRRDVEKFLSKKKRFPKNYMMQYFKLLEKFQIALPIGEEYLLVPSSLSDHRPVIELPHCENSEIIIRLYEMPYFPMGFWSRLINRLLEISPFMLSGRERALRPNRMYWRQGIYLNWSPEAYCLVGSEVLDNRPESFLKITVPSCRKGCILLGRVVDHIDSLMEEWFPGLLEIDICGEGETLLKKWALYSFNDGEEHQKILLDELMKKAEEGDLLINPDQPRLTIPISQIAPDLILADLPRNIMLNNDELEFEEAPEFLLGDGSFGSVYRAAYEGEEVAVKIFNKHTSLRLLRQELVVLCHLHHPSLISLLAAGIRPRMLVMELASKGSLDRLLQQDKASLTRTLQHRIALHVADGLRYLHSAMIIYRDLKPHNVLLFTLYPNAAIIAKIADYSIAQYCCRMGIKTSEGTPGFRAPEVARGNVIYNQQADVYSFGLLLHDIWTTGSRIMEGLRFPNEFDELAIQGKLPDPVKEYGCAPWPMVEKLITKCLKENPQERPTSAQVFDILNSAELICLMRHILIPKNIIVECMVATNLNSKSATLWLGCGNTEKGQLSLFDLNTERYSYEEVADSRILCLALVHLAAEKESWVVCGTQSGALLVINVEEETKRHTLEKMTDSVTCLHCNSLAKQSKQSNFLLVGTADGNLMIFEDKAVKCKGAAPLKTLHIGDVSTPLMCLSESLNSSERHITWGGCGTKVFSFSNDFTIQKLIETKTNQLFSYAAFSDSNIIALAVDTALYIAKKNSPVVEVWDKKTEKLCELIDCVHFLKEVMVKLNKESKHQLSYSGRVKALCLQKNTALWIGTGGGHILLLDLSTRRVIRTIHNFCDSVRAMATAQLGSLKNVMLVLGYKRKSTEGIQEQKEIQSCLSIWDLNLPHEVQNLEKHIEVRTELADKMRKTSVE
Experimental: (§1) To assess whether 70 and 68 alter LRRK2 activities in vivo, G2019S-LRRK2-BAC transgenic mice were used. […] Only the effects of 68 on LRRK2 functions were tested in vivo using G2019S-LRRK2-BAC transgenic mice. Vehicle or 68 at 10 and 20 mg/kg was injected intraperitoneally for one hour. Mouse brain homogenates were subjected to LRRK2 autophosphorylation and GTP binding assays.
LRRK2 kinase assay was adapted from previous studies using autophosphorylation of cell lysates or brain homogenates. Briefly, HEK 293T were transiently transfected with various LRRK2 variants or kinase domain fragments for 36 h, followed by no serum starvation for 12 h, and then treated with compound 70 and 68 for 1 h. The cells were harvested using lysis buffer (Cell Signaling). Mouse brains were homogenated using RIPA buffer (Cell Signaling). The resulting cell lysates or brain homogenates were immunoprecipitated using anti-Flag antibodies. […] Quantification was performed with a phosphoimager (Bio-Rad Molecular Imager FX). […]
To assess the effects of FX2149 on LRRK2 in brains compared with 68, both 68 and FX2149 were injected intraperitoneally into G2019S-BAC-LRRK2 transgenic mice at 10 and 20 mg/kg doses. […] To further confirm the effect of FX2149, we also assessed a LRRK2 downstream effector, 4E-BP phosphorylation. […]

LRRK2 [2] = test: LRRK2 GTP binding assay (GTP-agarose pull-down from lysates of transfected HEK293T cells); parameters: species or system human; conditions: for effect on wild type and PD-linked mutant LRRK2 GTP-binding activity: 10 μM
Experimental: LRRK2 kinase assay was adapted from previous studies using autophosphorylation of cell lysates or brain homogenates. Briefly, HEK 293T were transiently transfected with various LRRK2 variants or kinase domain fragments for 36 h, followed by […] serum starvation for 12 h, and then treated with compound 70 and 68 for 1 h. The cells were harvested using lysis buffer (Cell Signaling). Mouse brains were homogenated using RIPA buffer (Cell Signaling). The resulting cell lysates or brain homogenates were immunoprecipitated using anti-Flag antibodies. The immunoprecipitates were subjected to Western blot using anti-phosphorylation LRRK2 antibodies at S935 and S2032 residues as described previously. In some cases, immunoprecipitates were incubated with kinase reaction buffer for 90 min at 30° C. containing 50 mM MgCl2, 500 μM ATP, and 10 μCi of [γ-^32P]ATP (3,000 Ci/mmol) followed by 4-12% SDS/PAGE separation and blotted onto PVDF membranes. Quantification was performed with a phosphoimager (Bio-Rad Molecular Imager FX). GTP binding assays were performed. […] The resulting beads were washed three times with cell lysis buffer, and bound protein was eluted by adding SDS-PAGE sample buffer and heating for 10 min at 72° C. Precipitates were subjected to Western blot analysis using anti-Flag antibodies.
GTP binding assays were performed using GTP-agarose beads (Sigma) as described previously. Lysates of HEK 293T cells expressing LRRK2 proteins were incubated with 68 or FX2149 at various concentrations for 1 h. The GTP-agarose beads were added for an additional 2 h. The samples were subjected to Western blot analysis using anti-Flag antibodies. LRRK2 kinase assays were performed using LRRK2 phosphorylation and in vitro ^32P incorporation methods as described previously.

G2019S-LRRK2 = molecular target: T2, G2019S-LRRK2 (Homo sapiens, UniProt Q5S007, G2019S); test: LRRK2 phosphorylation (kinase) assay in HEK293T cells expressing G2019S-LRRK2; type: cell-based; conditions: 1 h
T2 construct: expressed in transfected cells; host or cells: HEK293T
T2 sequence (Q5S007 whole entry G2019S): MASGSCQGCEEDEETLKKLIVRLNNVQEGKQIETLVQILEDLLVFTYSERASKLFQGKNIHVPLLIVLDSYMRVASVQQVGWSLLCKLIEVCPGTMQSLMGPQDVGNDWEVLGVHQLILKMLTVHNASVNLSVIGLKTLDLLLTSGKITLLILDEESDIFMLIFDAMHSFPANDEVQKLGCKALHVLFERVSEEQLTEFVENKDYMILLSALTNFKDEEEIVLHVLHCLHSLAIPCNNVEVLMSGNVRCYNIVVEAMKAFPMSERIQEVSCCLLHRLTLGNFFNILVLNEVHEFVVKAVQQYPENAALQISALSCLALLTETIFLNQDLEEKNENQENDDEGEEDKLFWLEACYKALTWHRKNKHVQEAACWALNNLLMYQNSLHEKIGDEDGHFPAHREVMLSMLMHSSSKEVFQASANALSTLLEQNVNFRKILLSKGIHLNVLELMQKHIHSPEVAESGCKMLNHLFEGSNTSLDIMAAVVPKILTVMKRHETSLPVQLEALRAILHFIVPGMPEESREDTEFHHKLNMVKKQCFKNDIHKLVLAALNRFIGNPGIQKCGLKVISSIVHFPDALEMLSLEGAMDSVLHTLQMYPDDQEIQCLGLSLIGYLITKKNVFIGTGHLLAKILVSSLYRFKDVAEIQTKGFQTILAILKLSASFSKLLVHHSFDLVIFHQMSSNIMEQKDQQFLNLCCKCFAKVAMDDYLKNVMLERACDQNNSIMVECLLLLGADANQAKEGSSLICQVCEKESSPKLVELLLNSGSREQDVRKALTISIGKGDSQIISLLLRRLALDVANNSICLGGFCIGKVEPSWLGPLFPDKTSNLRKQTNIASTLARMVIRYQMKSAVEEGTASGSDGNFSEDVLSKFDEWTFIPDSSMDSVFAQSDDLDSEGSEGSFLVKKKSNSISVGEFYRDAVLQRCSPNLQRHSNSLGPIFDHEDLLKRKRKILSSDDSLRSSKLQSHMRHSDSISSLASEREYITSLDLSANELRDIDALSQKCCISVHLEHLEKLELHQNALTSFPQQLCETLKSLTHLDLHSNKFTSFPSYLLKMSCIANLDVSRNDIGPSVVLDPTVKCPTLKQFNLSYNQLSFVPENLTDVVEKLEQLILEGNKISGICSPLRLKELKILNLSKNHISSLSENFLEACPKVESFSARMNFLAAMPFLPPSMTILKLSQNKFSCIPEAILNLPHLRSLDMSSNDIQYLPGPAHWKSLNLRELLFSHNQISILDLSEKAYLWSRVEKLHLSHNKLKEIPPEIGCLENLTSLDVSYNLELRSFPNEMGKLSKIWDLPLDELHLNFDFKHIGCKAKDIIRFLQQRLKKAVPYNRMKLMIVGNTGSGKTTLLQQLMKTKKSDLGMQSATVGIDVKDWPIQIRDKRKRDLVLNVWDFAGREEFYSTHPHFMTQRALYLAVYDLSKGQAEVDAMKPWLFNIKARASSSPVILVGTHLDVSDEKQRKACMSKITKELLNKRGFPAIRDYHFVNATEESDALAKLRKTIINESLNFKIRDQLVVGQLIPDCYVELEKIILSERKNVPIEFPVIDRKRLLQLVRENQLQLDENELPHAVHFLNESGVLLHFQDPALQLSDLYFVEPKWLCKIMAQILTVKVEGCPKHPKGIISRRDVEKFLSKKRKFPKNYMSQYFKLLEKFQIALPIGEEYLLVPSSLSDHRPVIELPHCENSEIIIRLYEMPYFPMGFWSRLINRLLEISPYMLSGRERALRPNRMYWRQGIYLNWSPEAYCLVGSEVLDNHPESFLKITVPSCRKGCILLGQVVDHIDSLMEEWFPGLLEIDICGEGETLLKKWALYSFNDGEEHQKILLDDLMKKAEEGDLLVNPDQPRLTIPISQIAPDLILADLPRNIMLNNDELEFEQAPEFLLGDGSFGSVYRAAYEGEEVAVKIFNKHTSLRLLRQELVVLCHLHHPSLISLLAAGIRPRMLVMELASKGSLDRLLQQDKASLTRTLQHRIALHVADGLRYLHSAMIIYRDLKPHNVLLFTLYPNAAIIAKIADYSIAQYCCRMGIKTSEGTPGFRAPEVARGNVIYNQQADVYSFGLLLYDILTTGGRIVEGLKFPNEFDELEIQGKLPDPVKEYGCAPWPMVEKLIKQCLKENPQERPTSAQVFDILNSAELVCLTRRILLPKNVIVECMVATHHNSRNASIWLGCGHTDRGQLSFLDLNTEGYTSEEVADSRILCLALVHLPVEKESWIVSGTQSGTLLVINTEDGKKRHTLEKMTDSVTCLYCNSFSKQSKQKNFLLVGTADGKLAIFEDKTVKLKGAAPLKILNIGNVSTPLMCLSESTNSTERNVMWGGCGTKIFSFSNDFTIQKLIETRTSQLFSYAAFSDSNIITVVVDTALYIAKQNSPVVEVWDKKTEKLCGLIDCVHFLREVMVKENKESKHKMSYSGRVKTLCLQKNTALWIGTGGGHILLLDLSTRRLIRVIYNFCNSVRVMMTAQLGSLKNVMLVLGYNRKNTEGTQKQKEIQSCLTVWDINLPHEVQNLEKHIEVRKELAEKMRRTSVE
Experimental: LRRK2 kinase assay was adapted from previous studies using autophosphorylation of cell lysates or brain homogenates. Briefly, HEK 293T were transiently transfected with various LRRK2 variants or kinase domain fragments for 36 h, followed by no serum starvation for 12 h, and then treated with compound 70 and 68 for 1 h. The cells were harvested using lysis buffer (Cell Signaling). Mouse brains were homogenated using RIPA buffer (Cell Signaling). The resulting cell lysates or brain homogenates were immunoprecipitated using anti-Flag antibodies. The immunoprecipitates were subjected to Western blot using anti-phosphorylation LRRK2 antibodies at S935 and S2032 residues as described previously. In some cases, immunoprecipitates were incubated with kinase reaction buffer for 90 min at 30° C. containing 50 mM MgCl2, 500 μM ATP, and 10 μCi of [γ-^32P]ATP (3,000 Ci/mmol) followed by 4-12% SDS/PAGE separation and blotted onto PVDF membranes. Quantification was performed with a phosphoimager (Bio-Rad Molecular Imager FX). GTP binding assays were performed. […]
For LRRK2 phosphorylation assays, HEK293T cells were transfected with various LRRK2 variants for 36 h, then were incubated in media without serum for 12 hours. […] The LRRK2 autophosphorylation with ^32P incorporation was separated by SDS/PAGE gel and quantified with a phosphoimager (Bio-Rad Molecular Imager).

LRRK2 [3] = molecular target: T1, LRRK2; test: brain LRRK2 GTP binding in G2019S-LRRK2-BAC transgenic mice; type: in vivo; conditions: for effect on brain LRRK2 GTP binding activity: 1 h after injection
Experimental: as §1
LRRK2 kinase assay was adapted from previous studies using autophosphorylation of cell lysates or brain homogenates. Briefly, HEK 293T were transiently transfected with various LRRK2 variants or kinase domain fragments for 36 h, followed by […] serum starvation for 12 h, and then treated with compound 70 and 68 for 1 h. The cells were harvested using lysis buffer (Cell Signaling). Mouse brains were homogenated using RIPA buffer (Cell Signaling). The resulting cell lysates or brain homogenates were immunoprecipitated using anti-Flag antibodies. The immunoprecipitates were subjected to Western blot using anti-phosphorylation LRRK2 antibodies at S935 and S2032 residues as described previously. In some cases, immunoprecipitates were incubated with kinase reaction buffer for 90 min at 30° C. containing 50 mM MgCl2, 500 μM ATP, and 10 μCi of [γ-^32P]ATP (3,000 Ci/mmol) followed by 4-12% SDS/PAGE separation and blotted onto PVDF membranes. Quantification was performed with a phosphoimager (Bio-Rad Molecular Imager FX). GTP binding assays were performed. Cell lysates or brain homogenates (100 μg protein/per reaction) were incubated with vehicle or compounds at 1-50 μM concentration for 1 h followed by addition of GTP-agarose beads (Sigma) for an additional 2 h at 4° C. The resulting beads were washed three times with cell lysis buffer, and bound protein was eluted by adding SDS-PAGE sample buffer and heating for 10 min at 72° C. Precipitates were subjected to Western blot analysis using anti-Flag antibodies.
To assess the effects of FX2149 on LRRK2 in brains compared with 68, both 68 and FX2149 were injected intraperitoneally into G2019S-BAC-LRRK2 transgenic mice at 10 and 20 mg/kg doses. One hour after the injection, the mouse brain homogenates were subjected to LRRK2 GTP binding and kinase assays. Both 68 (20 mg/kg) and FX2149 (10 mg/kg) reduced LRRK2 GTP binding activity in mouse brains (FIGS. 32 and 33). […] To further confirm the effect of FX2149, we also assessed a LRRK2 downstream effector, 4E-BP phosphorylation. 4E-BP is a […] that can be phosphorylated by LRRK2. […] FX2149 at a 10 mg/kg dose reduced 4E-BP up to 15% of the untreated control group, while 68 at a 20 mg/kg dose reduced 4E-BP up to 15% of the untreated control group.

[4] = test system: SH-SY5Y cells expressing mutant G2019S-LRRK2; test: TUNEL assay in SH-SY5Y cells expressing mutant LRRK2; type: cell-based, human; conditions: 100 nM
Experimental: Expression of mutant G2019S-LRRK2 led to neuronal degeneration in both SH-SY5Y and mouse primary cortical neurons as assessed by cell viability and DNA fragmentation (TUNEL) assays as previously described. […] To further confirm these findings, mouse primary cortical neurons were used to assess the effects of 70 and 68. Treatment of 70 (2 and 5 nM) and 68 (5 and 10 nM) protected against mutant LRRK2-induced neuronal degeneration (FIG. 15, panels (a) and (c)). Moreover, 70 and 68 both decreased the TUNEL-positive SH-SY5Y cells expressing mutant LRRK2 (FIG. 15, panel (d)).
SH-SY5Y cell viability assays were conducted as described. Cells were co-transfected with GFP and various pcDNA3.1-LRRK2 plasmids at a 1:15 ratio for 24 h in 10% FBS OPTI-I media and then changed to DMEM with N2 supplement for 24 h. Compounds were added after 4-h transfection. Cell viability was measured by counting the healthy viable cells that contained at least one smooth extension (neurite) that was twice the length of the cell body from 20 randomly selected fields using fluorescence microscopy. TUNEL assays were performed according to the manufacturer's instructions as described previously. The experiments were repeated three times in duplicate. The quantification for LRRK2 toxicity was performed by an investigator who was blind to transfection groups.

[5] = test system: SH-SY5Y cells expressing G2019S-LRRK2; test: SH-SY5Y cell viability assay (G2019S-LRRK2-induced neuronal degeneration); type: cell-based, human
Experimental: Mouse primary cortical neurons were derived from CD-1 outbred mice (The Jackson Laboratory) at embryonic day 16 and cultured on 24 well plates coated with laminin- and poly-D-lysine-coated plates (BD Biosource, San Diego). Neurons were grown in neurobasal medium containing B-27 supplement, Glutamax, and penicillin/streptomycin. LRRK2 constructs were transfected into mouse primary cortical neurons using Lipofectamine 2000 (Invitrogen) according to the manufacturer's protocol. Cell viability assays were conducted. pcDNA3.1-GFP and FLAG-LRRK2 constructs at 1:15 ratio were cotransfected into SH-SY5Y cells (neurons) in 10% FBS OPTI-I media for 24 h. The media were changed to DMEM containing N2 supplement for 24 h. Cell viability was measured by counting GFP-positive viable cells (neurons) from 20 randomly selected fields using fluorescence microscopy. Viable cells (neurons) with one smooth extension (neurite) twice the length of the cell body were counted.
SH-SY5Y cell viability assays were conducted as described. […] Cell viability was measured by counting the healthy viable cells that contained at least one smooth extension (neurite) that was twice the length of the cell body from 20 randomly selected fields using fluorescence microscopy. […] The quantification for LRRK2 toxicity was performed by an investigator who was blind to transfection groups.

[6] = test system: LPS-induced microglia activation and LRRK2 upregulation; test: LPS-based mouse neuroinflammation model, immunohistochemistry of substantia nigra; type: in vivo
Experimental: G2019S-LRRK2-BAC (Jackson, Lab. Cat: 012467) transgenic mice were food deprived for 4 h before surgery. There were 4 to 6 mice in each experimental group. Mice were anesthetized with isoflurane. LPS ([…] containing 15,000 endotoxin units, Sigma) was injected into the substantia nigra pars compacta unilaterally with a 1 μl volume at 0.2 μl/min flow rate as described previously. The stereotaxic coordinates were −3.4 anteroposterior (AP), −1.1 ML, and −3.9 DV with respect to bregma. After injection, the needle was kept in place for 5 min before withdrawal to avoid LPS leakage up the cannula track. […] Then 68 was injected twice daily for three days. The mice were perfused with 4% paraformaldehyde (PFA) in PBS and the brains were dissected and frozen in isopentane and stored in a −80° C. freezer for immunostaining Animal usage was approved by the University of Maryland School of Pharmacy.
Mice were perfused with saline and 4% paraformaldehyde. Frozen mouse brains were sectioned through the substantia nigra at 30 μm and the sections were subjected to immunohistochemical analysis as described previously. Briefly, frozen sections were placed in 0.6% H2O2 in methanol for 10 min followed by 5% normal goat serum (Sigma) to block non-specific reactions. Sections were then sequentially incubated with primary antibodies and biotinylated anti-rabbit secondary antibodies (Vector Laboratories) and avidin-biotin-peroxidase complex (ABC Elite kit, Vector Laboratories). Anti-LRRK2 (MJFF), anti-phosphorylated LRRK2 S935 (MJFF), and anti-isolectin antibodies were used as primary antibodies. Isolectin-B4:FITC or Isolectin-B4:Biotin were from Sigma. Some tissue sections were visualized by peroxidase reaction using diaminobenzidine (DAB, Sigma). Some tissue sections were probed with Alexa Fluor 488 goat anti-mouse (rabbit) IgG and Alexa Fluor 568 goat anti-mouse (rabbit) IgG (Invitrogen) as secondary antibodies. The specificity of the immunostaining was checked by incubating adjacent sections with each preabsorbed primary antibody. […] The density of red and green fluorescence in the 6 consecutive sections crossing the LPS injection site of each mouse was quantified using NIH image-J software. Six microscope field images (20×) from one brain section were subjected to fluorescence density quantification. […]
G2019S-LRRK2-BAC transgenic mice were anesthetized with isoflurane and injected with LPS (15,000 endotoxin units, 5 μg, Sigma) for each mouse in the substantia nigra pars compacta (SN) unilaterally as described previously. […] Some sections were added with anti-rabbit (mouse) biotinylated secondary antibody and avidin-biotin-peroxidase complex (Vector Laboratories), and detected by diaminobenzidine (DAB, Sigma). […]

Compound | effect on brain LRRK2 phosphorylation (kinase activity) (LRRK2 [1]; 20 mg/kg i.p.) | effect on wild type and PD-linked mutant LRRK2 GTP-binding activity (LRRK2 [2]) | effect on LRRK2 phosphorylation (G2019S-LRRK2; 10 μM) | effect on brain LRRK2 GTP binding activity (LRRK2 [3]; 20 mg/kg i.p.) | effect on brain LRRK2 kinase activity (LRRK2 [1]; 10 mg/kg i.p.) | reduction of LRRK2 GTP binding activity (LRRK2 [2]; 10 nM) [%] | effect on LRRK2 binding with GTP (LRRK2 [2]; 1 and 10 nM) | effect on mutant LRRK2 variants (G2019S and R1441C) bound with GTP (LRRK2 [2]; 1 and 10 nM) | TUNEL-positive cells expressing mutant G2019S-LRRK2 [4] | reduction of G2019S-LRRK2 kinase activity (phosphorylation at S935 and S2032) (G2019S-LRRK2; 100 nM) [%] | effect on brain LRRK2 GTP binding activity (LRRK2 [3]; 10 mg/kg i.p.) | brain (BBB) penetration inferred from brain LRRK2 GTP binding and kinase inhibition (LRRK2 [3]; after i.p. injection) | improvement of in vivo efficacy over 68 (LRRK2 [3]; mouse, in vivo) | protection against mutant LRRK2-induced neurodegeneration ([5]; 50-200 nM) | viability of cells expressing G2019S-LRRK2 compared with vehicle treated cells ([5]; treated for 48 hours) | reduction of LPS-induced microglia activation compared with vehicle treated LPS mice ([6]; 10 mg/kg) [%] | LPS-induced LRRK2-positive immunostaining compared with vehicle controls ([6]; 10 mg/kg i.p.) | anti-phosphorylated-LRRK2 immunoactivity ([6]; 10 mg/kg i.p.) | isolectin B4 immunoactivity compared with the LPS alone treated group ([6]; 10 mg/kg i.p., twice daily for three days) [%]
CC(C)NC(=O)c1cccc(NS(=O)(=O)c2cccnc2)c1 [FX2151, N-isopropyl-3-(pyridine-3-sulfonamido)benzamide] | did not alter | did not alter | did not alter | did not alter |  |  |  |  |  |  |  |  |  |  |  |  |  |  | 
O=C1Nc2ccc(I)cc2/C1=C/c1cc(Br)c(O)c(Br)c1 [GW5074, reference compound] |  | did not alter |  |  |  |  |  |  |  |  |  |  |  |  |  |  |  |  | 
CCCNC(=O)c1cccc(NS(=O)(=O)c2cccnc2)c1 [FX2149, N-propyl-3-(pyridine-3-sulfonamido)benzamide] |  |  |  |  | significantly reduced | ~90 | significantly reduced | reduced | significantly reduced | ~90 | reduced | taken up into brains at a greater extent | more than 2 fold | protected | significantly increased | 57 | significantly reduced | significantly reduced | ~43
